Laboratory results from PMC8041284, “Tunable Methacrylamides for Covalent Ligand Directed Release Chemistry” (Journal of the American Chemical Society, 2021).

Molecular target: BTK (Homo sapiens, UniProt Q06187)
Assay: biochemical
Settings: read-out: BTK inhibition (%), 0.75 uM BTK, […] probe 3l, 15 min preincubation

Chain of BTK (Q06187 402-655 limits assumed): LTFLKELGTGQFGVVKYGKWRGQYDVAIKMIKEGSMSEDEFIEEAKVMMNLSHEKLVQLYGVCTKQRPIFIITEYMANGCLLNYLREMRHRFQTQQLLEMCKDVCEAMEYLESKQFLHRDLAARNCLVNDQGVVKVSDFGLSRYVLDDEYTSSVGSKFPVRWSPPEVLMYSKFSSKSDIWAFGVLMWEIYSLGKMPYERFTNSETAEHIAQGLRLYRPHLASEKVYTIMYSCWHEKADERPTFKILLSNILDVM

| Structure (SMILES) | inhibition at 10 µM [%] |
| --- | --- |
| O=C(O)C1(Cc2cccc(Nc3nccs3)n2)CCC(Oc2cccc(Cl)c2F)CC1 (stereo not shown) [PCM-0095334] | 102 |
| Cc1cc(C(=O)O)n[nH]1 [PCM-0216163] | -0.8 |
| Cn1c(=O)cc(N2CCC[C@@H](N)C2)n(Cc2ccccc2C#N)c1=O [PCM-0095535] | -11 |
| COc1cc2c(=O)c(-c3ccc(O)cc3)coc2cc1O[C@@H]1O[C@H](CO)[C@@H](O)[C@H](O)[C@H]1O [PCM-0214955] | 15.6 |
| S=C(N/N=C1\CCCc2cccnc21)N1CCN(c2ccccn2)CC1 [PCM-0215896] | 20.1 |
| COc1cc2c(cc1O)C[C@H]1c3cc(O)c(OC)cc3CC[N+]1(C)C2 (stereo partly shown) [PCM-0216444] | 2.3 |
| COC(=O)c1ccc2c(c1)nc(NC(=O)c1ccccc1)n2CCCc1ccccc1 [PCM-0215403] | 0 |
| COc1cc2c(cc1O)C[C@H]1c3c(cc(O)c(OC)c3-2)CCN1C [PCM-0216351] | 6.9 |
| Oc1ncnc2[nH]ncc12 [PCM-0064482] | -5.5 |
| COc1ccc(/C=C/C(=O)c2c(O)cc(OC)cc2OC)cc1 [PCM-0216582] | 11.6 |
| CC(C)N(CCC(=O)c1ccc2ccccc2c1)Cc1ccccc1 [PCM-0064875] | 29 |
| O=c1ccc2cc(O)ccc2o1 [PCM-0216289] | -10 |
| CC1(C)OC(=O)C=C[C@]2(C)[C@H]3CC[C@@]4(C)[C@H](c5ccoc5)OC(=O)[C@H]5O[C@]54[C@]3(C)C(=O)C[C@@H]12 [PCM-0214973] | 11.7 |
| CC[C@@H]1CN2CC[C@@]3(C(=O)Nc4ccccc43)[C@@H]2C[C@@H]1/C(=C\OC)C(=O)OC [PCM-0216594] | -15.4 |
| OC1OC[C@@H](O)[C@@H](O)[C@@H]1O (stereo partly shown) [PCM-0215980] | 10.8 |
| C[C@@H]1COCCN1c1cc(C2([S@](C)(=N)=O)CC2)nc(-c2ccnc3[nH]ccc23)n1 [PCM-0215530] | -4.1 |
| CN1CCN(c2nc(C3=C(c4c[nH]c5ccccc45)C(=O)NC3=O)c3ccccc3n2)CC1 [PCM-0095375] | 57.9 |
| OCc1ccc(-c2ccc(-c3ccc(CO)s3)o2)s1 [PCM-0095348] | 1.6 |
| C[C@@H]1OC(O)[C@@H](O)[C@H](O)[C@@H]1O (stereo partly shown) [PCM-0216337] | -23.2 |
| C=C(C)[C@@H]1CC[C@]2(C(=O)O)CC[C@]3(C)[C@H](CC[C@@H]4[C@@]5(C)CC[C@H](O)[C@@](C)(CO)[C@@H]5CC[C@]43C)[C@@H]12 [PCM-0216604] | 26.3 |
| COc1cccc(-c2cc(F)ccc2[C@H]2Cc3nc(N)nc(C)c3C(=O)N2)n1 [PCM-0215352] | 2.3 |
| CCNC(=O)Nc1ccc(-c2nc(N3CCOC[C@@H]3C)c3c(n2)C(C)(C)S(=O)(=O)C3)cc1 [PCM-0215744] | -22.8 |
| CC(=O)Nc1nc2c(Oc3cc(-c4ccc(C(F)(F)F)cc4)ncn3)cccc2s1 [PCM-0095587] | 10.8 |
| O=S(=O)(NCCNC/C=C/c1ccc(Br)cc1)c1cccc2cnccc12 [PCM-0095146] | -22.8 |
| CC[C@@H]1/C=C(\C)C[C@H](C)C[C@H](OC)[C@H]2O[C@@](O)(C(=O)C(=O)N3CCCC[C@H]3C(=O)O[C@H](/C(C)=C/[C@@H]3CC[C@H](Cl)[C@H](OC)C3)[C@H](C)[C@@H](O)CC1=O)[C@H](C)C[C@@H]2OC [PCM-0214690] | -13.8 |
| O=c1cc[nH]c(=S)[nH]1 [PCM-0090803] | 8.6 |
| CC1(C)CCC[C@]2(C)[C@H]3CC(=O)O[C@]3(C)CC[C@@H]12 [PCM-0090818] | -18.7 |

| Structure (SMILES) | inhibition at 10 µM [%] |
| --- | --- |
| COc1cc2nc(N3CCCC3)nc(NCCCCCN3CCCC3)c2cc1OC [PCM-0215440] | 17.8 |
| O=C(c1ccccc1O)c1[nH]c(Cl)c(Cl)c1-n1c(C(=O)c2ccccc2O)cc(Cl)c1Cl [PCM-0215850] | 117 |
| Cc1cc(-c2nc(-c3ccc(OC(F)(F)F)cc3)no2)nn1Cc1ccnc(N2CCN(C3CC3)CC2)c1 [PCM-0215339] | -1.5 |
| O=C1CCc2ccc(OCCCCN3CCN(c4cccc(Cl)c4Cl)CC3)cc2N1 [PCM-0086268] | -10.9 |
| C=CCc1ccc(OC(C)=O)c(OC)c1 [PCM-0216623] | 8.5 |
| COc1cc(N2CCC(N(C)C)CC2)ccc1Nc1ncc(Cl)c(Nc2ccccc2P(C)(C)=O)n1 [PCM-0215177] | 64.8 |
| O=C(O)CCCC[C@@H]1SC[C@@H]2NC(=O)N[C@@H]21 [PCM-0085973] | 0 |
| c1ccc2c(CC3=NCCN3)cccc2c1 [PCM-0085846] | -13.2 |
| CCC[C@H](N[C@H]1CCc2cc(F)cc(F)c2C1)C(=O)Nc1cn(C(C)(C)CNCC(C)(C)C)cn1 [PCM-0215524] | -3.9 |
| O=c1[nH]c2ccccc2o1 [PCM-0216203] | 5.4 |
| Cc1cc(N2CCOCC2)cc2[nH]c(-c3c(NC[C@@H](O)c4cccc(Cl)c4)cc[nH]c3=O)nc12 [PCM-0214699] | 109 |
| CCCCNc1ncc(C(=O)NCc2ccc(-n3ccnc3)cc2)c(NC2CCC(O)CC2)n1 (stereo not shown) [PCM-0215319] | 2.1 |
| CN1CCc2cc(Nc3ncc(C4CC4)c(NCCCNC(=O)C4CCC4)n3)ccc2C1 [PCM-0215643] | -8.5 |
| CN1CCC[C@H]1c1cccnc1 [PCM-0215258] | -1.6 |
| CC(C)(C)c1nc(-c2ccc(NC(=O)Nc3cccc(C(F)(F)F)c3)c3ccccc23)c2c(N)nccn12 [PCM-0216026] | 79.3 |
| CC1=C(C/C=C(\C)CCC[C@H](C)CCC[C@H](C)CCCC(C)C)C(=O)c2ccccc2C1=O [PCM-0216261] | 7.8 |
| CCn1cc(-c2cccc(C(F)(F)F)c2)c2sc(C(N)=NC3CCS(=O)(=O)CC3)cc2c1=O [PCM-0215627] | 2.3 |
| CN1CCN(c2nc3ccccc3nc2Cl)CC1 [PCM-0095510] | -6.2 |
| Cc1cc(=O)n(-c2ccccc2)n1C [PCM-0085809] | 13.8 |
| CC(C)=CCOc1ccc(/C=C/C(=O)c2ccc(OCC=C(C)C)cc2OCC(=O)O)cc1 [PCM-0216579] | 16.2 |
| CN[C@H]1CN(c2ccc3c(=O)c(C(=O)O)cn(-c4nccs4)c3n2)C[C@@H]1OC [PCM-0215713] | -17 |
| CO[C@@H]1[C@@H](O[C@@H]2O[C@H](C)[C@@H](O[C@H]3C[C@@](C)(O)[C@@H](O)[C@H](C)O3)[C@H](N(C)C)[C@H]2O)[C@@H](CC=O)C[C@@H](C)[C@@H](O)/C=C/C=C/C[C@@H](C)OC(=O)C[C@H]1O [PCM-0214884] | 6.2 |
| CCC1C/C(=C\c2cccnc2)C(=O)/C(=C/c2cccnc2)C1 (stereo not shown) [PCM-0215528] | 10 |
| CCN1C(=O)CNc2ncc(-c3ccc(-c4ncn[nH]4)nc3C)nc21 [PCM-0215743] | 11.7 |
| CC(C)(Sc1cc(C(C)(C)C)c(O)c(C(C)(C)C)c1)Sc1cc(C(C)(C)C)c(O)c(C(C)(C)C)c1 [PCM-0086112] | 0.8 |
| CCn1nc(C2CCN(C(=O)CCO)CC2)nc1-c1cnc(N)c(-c2nnc(C(C)(C)C)o2)n1 [PCM-0215697] | 9.7 |
| C[C@@H](c1ncncc1F)[C@](O)(Cn1cncn1)c1ccc(F)cc1F [PCM-0214624] | 2.3 |

More lines, now with the values ahead:

| inhibition at 10 µM [%] | Structure (SMILES) |
| --- | --- |
| 19.3 | N#Cc1ccc(-c2c(-c3ncn[nH]3)sc(N3CCOCC3)c2C#N)c(F)c1 [PCM-0215501] |
| -10.9 | CCCCc1nc(Cl)c(CO)n1Cc1ccc(-c2ccccc2-c2nnn[nH]2)cc1 [PCM-0086291] |
| -14.5 | COc1ccc(S(=O)(=O)Nc2cccnc2Nc2ccc(O)cc2)cc1 [PCM-0095016] |
| 1.5 | CC(=O)OC/C=C(/C)CCC=C(C)C [PCM-0216620] |
| 54.1 | O=S(=O)(O)c1ccc2cc(N=Nc3cc(S(=O)(=O)O)c4cccnc4c3O)ccc2c1 [PCM-0215685] |
| 17.8 | OC[C@@H](O)[C@@H](O[C@@H]1O[C@H](CO)[C@H](O)[C@H](O)[C@H]1O)[C@H](O)[C@@H](O)CO [PCM-0090607] |
| 10 | Cc1ccc(C(=O)O)c(O)c1 [PCM-0216186] |
| -6.9 | CN(NC(=O)CC(=O)NN(C)C(=S)c1ccccc1)C(=S)c1ccccc1 [PCM-0094978] |
| -8.5 | O=C1C[C@@H]2[C@@H](CO)[C@H](O)C[C@@H]2O1 [PCM-0216100] |
| -25.7 | C[C@@]1(c2cc(-c3cncnc3)c(F)cc2F)CCSC(N)=N1 [PCM-0095088] |
| 0.8 | C/C=C(/C)C(=O)O[C@H]1Cc2cc3ccc(=O)oc3cc2OC1(C)C [PCM-0214953] |
| -1.6 | CCCN1C[C@H](CSC)C[C@@H]2c3cccc4[nH]cc(c34)C[C@H]21 [PCM-0065439] |
| 6.2 | Cc1c(C(=O)Nc2ccc(N3C[C@@H](C)O[C@@H](C)C3)nc2)cccc1-c1ccc(OC(F)(F)F)cc1 [PCM-0095316] |
| 14.8 | Nc1ccc(S(=O)(=O)Nc2nccs2)cc1 [PCM-0085785] |
| 19.3 | C/C=C/c1cc(OC)c2c(c1)C(C)C(c1ccc(O)c(OC)c1)O2 (stereo not shown) [PCM-0216391] |
| -20.1 | Cc1ccc(C(C)C)cc1 [PCM-0216218] |
| -10.8 | CN(C)CCC=C1c2ccccc2C(C)(C)c2ccccc21 [PCM-0216044] |
| -27.8 | CC(=O)OCOC(=O)CN(CC(=O)OCOC(C)=O)c1ccccc1OCCOc1ccccc1N(CC(=O)OCOC(C)=O)CC(=O)OCOC(C)=O [PCM-0215314] |
| 3.1 | Cc1sc2c(c1C)C(c1ccc(Cl)cc1)=N[C@@H](CC(=O)Nc1ccc(O)cc1)c1nnc(C)n1-2 [PCM-0095727] |
| -15.6 | NS(=O)(=O)c1ccc(NC(=O)Nc2ccc(F)cc2)cc1 [PCM-0095531] |
| -25.7 | CCn1c(=O)c2c(nc(/C=C/c3ccc(OC)c(OC)c3)n2C)n(CC)c1=O [PCM-0095373] |
| 97.2 | C=CC(=O)N1CCC[C@H](n2c(=O)n(-c3ccc(Oc4ccccc4)cc3)c3c(N)ncnc32)C1 [PCM-0215519] |
| 24.1 | COc1ccc(Cl)c(Nc2nc3ccccc3nc2NS(=O)(=O)c2cccc(NC(=O)C(C)(C)N)c2)c1 [PCM-0215473] |
| 20.8 | C[C@@]1(CO)C[C@@H](O)C[C@@]2(C)[C@@H]3CC[C@](C)([C@@H](O)CO)C=C3CC[C@H]12 [PCM-0216530] |
| -17.1 | CCC1(c2ccccc2)C(=O)NCNC1=O [PCM-0065590] |
